# Experimental data as given in PubChem BioAssay (NCI).
#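 Each compound was tested at five concentrations against cells in 96-well plates for 48 hours. At the TGI there is no net growth.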
# Assays:
# Assay in all cases: inhibition of tumour cell growth, NCI panel, 48 h
# A498 renal = tested on: A498 renal
# SF-295 CNS = tested on: SF-295 CNS
# LOX IMVI melanoma = tested on: LOX IMVI melanoma
# MOLT-4 leukemia = tested on: MOLT-4 leukemia
# ACHN renal = tested on: ACHN renal
# NCI-H226 lung = tested on: NCI-H226 lung
# SK-MEL-5 melanoma = tested on: SK-MEL-5 melanoma
# RXF 393 renal = tested on: RXF 393 renal
# HCC-2998 colon = tested on: HCC-2998 colon
# M14 melanoma = tested on: M14 melanoma
# RPMI-8226 leukemia = tested on: RPMI-8226 leukemia
# OVCAR-4 ovarian = tested on: OVCAR-4 ovarian
# MALME-3M melanoma = tested on: MALME-3M melanoma
# MDA-MB-435 = tested on: MDA-MB-435
# NCI-H460 lung = tested on: NCI-H460 lung
# A549 NSCLC = tested on: A549 NSCLC
# SN12C renal = tested on: SN12C renal
# MDA-N = tested on: MDA-N
# TK-10 renal = tested on: TK-10 renal
# HOP-62 NSCLC = tested on: HOP-62 NSCLC
# CAKI-1 renal = tested on: CAKI-1 renal
# MCF7 breast = tested on: MCF7 breast
# HT29 colon = tested on: HT29 colon
# PC-3 prostate = tested on: PC-3 prostate
# HS 578T breast = tested on: HS 578T breast
# SK-OV-3 ovarian = tested on: SK-OV-3 ovarian
# SF-268 CNS = tested on: SF-268 CNS
# SF-539 CNS = tested on: SF-539 CNS
# COLO 205 colon = tested on: COLO 205 colon
# UACC-62 melanoma = tested on: UACC-62 melanoma
# NCI-H23 lung = tested on: NCI-H23 lung
# NCI-H522 lung = tested on: NCI-H522 lung
# 786-0 renal = tested on: 786-0 renal
# K-562 leukemia = tested on: K-562 leukemia
# HCT-15 colon = tested on: HCT-15 colon
# SNB-19 CNS = tested on: SNB-19 CNS
# MDA-MB-231 breast = tested on: MDA-MB-231 breast
# OVCAR-3 ovarian = tested on: OVCAR-3 ovarian
# U251 CNS = tested on: U251 CNS
# HL-60(TB) leukemia = tested on: HL-60(TB) leukemia
# SR leukemia = tested on: SR leukemia
# SK-MEL-28 melanoma = tested on: SK-MEL-28 melanoma
# EKVX NSCLC = tested on: EKVX NSCLC
# CCRF-CEM leukemia = tested on: CCRF-CEM leukemia
# OVCAR-5 ovarian = tested on: OVCAR-5 ovarian
# IGROV1 ovarian = tested on: IGROV1 ovarian
# SK-MEL-2 melanoma = tested on: SK-MEL-2 melanoma
# BT-549 breast = tested on: BT-549 breast
# UO-31 renal = tested on: UO-31 renal
# DU-145 prostate = tested on: DU-145 prostate
# T-47D breast = tested on: T-47D breast
# HOP-92 NSCLC = tested on: HOP-92 NSCLC
# SW-620 colon = tested on: SW-620 colon
# UACC-257 melanoma = tested on: UACC-257 melanoma
# HCT-116 colon = tested on: HCT-116 colon
# OVCAR-8 ovarian = tested on: OVCAR-8 ovarian
# SNB-75 CNS = tested on: SNB-75 CNS
# NCI/ADR-RES ovarian = tested on: NCI/ADR-RES ovarian
# KM12 colon = tested on: KM12 colon
structure (smiles),measurement,setting,value
CN1N(c2ccccc2)C(=O)C2=NC=C(C(=O)c3ccccc3)C(=N)C21C (configuration not stated),TGI,A498 renal,> 100 µM
same,TGI,SF-295 CNS,> 100 µM
same,TGI,LOX IMVI melanoma,> 100 µM
same,TGI,MOLT-4 leukemia,> 100 µM
same,TGI,ACHN renal,> 100 µM
same,TGI,NCI-H226 lung,> 100 µM
same,TGI,SK-MEL-5 melanoma,> 100 µM
same,TGI,RXF 393 renal,> 100 µM
same,TGI,HCC-2998 colon,> 100 µM
same,TGI,M14 melanoma,> 100 µM
same,TGI,RPMI-8226 leukemia,> 100 µM
same,TGI,OVCAR-4 ovarian,> 100 µM
same,TGI,MALME-3M melanoma,> 100 µM
same,TGI,MDA-MB-435,> 100 µM
same,TGI,NCI-H460 lung,> 100 µM
same,TGI,A549 NSCLC,> 100 µM
same,TGI,SN12C renal,> 100 µM
same,TGI,MDA-N,> 100 µM
same,TGI,TK-10 renal,> 100 µM
same,TGI,HOP-62 NSCLC,> 100 µM
same,TGI,CAKI-1 renal,> 100 µM
same,TGI,MCF7 breast,> 100 µM
same,TGI,HT29 colon,> 100 µM
same,TGI,PC-3 prostate,> 100 µM
same,TGI,HS 578T breast,> 100 µM
same,TGI,SK-OV-3 ovarian,> 100 µM
same,TGI,SF-268 CNS,> 100 µM
same,TGI,SF-539 CNS,> 100 µM
same,TGI,COLO 205 colon,> 100 µM
same,TGI,UACC-62 melanoma,> 100 µM
same,TGI,NCI-H23 lung,> 100 µM
same,TGI,NCI-H522 lung,> 100 µM
same,TGI,786-0 renal,> 100 µM
same,TGI,K-562 leukemia,> 100 µM
same,TGI,HCT-15 colon,> 100 µM
same,TGI,SNB-19 CNS,> 100 µM
same,TGI,MDA-MB-231 breast,> 100 µM
same,TGI,OVCAR-3 ovarian,> 100 µM
same,TGI,U251 CNS,> 100 µM
same,TGI,HL-60(TB) leukemia,> 100 µM
same,TGI,SR leukemia,> 100 µM
same,TGI,SK-MEL-28 melanoma,> 100 µM
same,TGI,EKVX NSCLC,> 100 µM
same,TGI,CCRF-CEM leukemia,> 100 µM
same,TGI,OVCAR-5 ovarian,> 100 µM
same,TGI,IGROV1 ovarian,> 100 µM
same,TGI,SK-MEL-2 melanoma,> 100 µM
same,TGI,BT-549 breast,> 100 µM
same,TGI,UO-31 renal,> 100 µM
same,TGI,DU-145 prostate,> 100 µM
same,TGI,T-47D breast,> 100 µM
same,TGI,HOP-92 NSCLC,> 100 µM
same,TGI,SW-620 colon,> 100 µM
same,TGI,UACC-257 melanoma,> 100 µM
same,TGI,HCT-116 colon,> 100 µM
Cc1ccc(S(=O)(=O)N/N=C2/C3CCC(C3)C2c2ccccc2)cc1 (configuration not stated),TGI,SF-295 CNS,> 100 µM
same,TGI,LOX IMVI melanoma,> 100 µM
same,TGI,MOLT-4 leukemia,> 100 µM
same,TGI,ACHN renal,> 100 µM
same,TGI,NCI-H226 lung,> 100 µM
same,TGI,SK-MEL-5 melanoma,> 100 µM
same,TGI,OVCAR-8 ovarian,> 100 µM
same,TGI,SNB-75 CNS,> 100 µM
same,TGI,M14 melanoma,> 100 µM
same,TGI,RPMI-8226 leukemia,> 100 µM
same,TGI,OVCAR-4 ovarian,> 100 µM
same,TGI,MALME-3M melanoma,> 100 µM
same,TGI,MDA-MB-435,> 100 µM
same,TGI,NCI-H460 lung,> 100 µM
same,TGI,A549 NSCLC,> 100 µM
same,TGI,SN12C renal,> 100 µM
same,TGI,MDA-N,> 100 µM
same,TGI,TK-10 renal,> 100 µM
same,TGI,HOP-62 NSCLC,> 100 µM
same,TGI,CAKI-1 renal,> 100 µM
same,TGI,MCF7 breast,> 100 µM
same,TGI,HT29 colon,> 100 µM
same,TGI,PC-3 prostate,> 100 µM
same,TGI,HS 578T breast,> 100 µM
same,TGI,SK-OV-3 ovarian,> 100 µM
same,TGI,SF-268 CNS,> 100 µM
same,TGI,COLO 205 colon,> 100 µM
same,TGI,UACC-62 melanoma,> 100 µM
same,TGI,NCI-H23 lung,> 100 µM
same,TGI,NCI-H522 lung,> 100 µM
same,TGI,786-0 renal,> 100 µM
same,TGI,K-562 leukemia,> 100 µM
same,TGI,HCT-15 colon,> 100 µM
same,TGI,SNB-19 CNS,> 100 µM
same,TGI,OVCAR-3 ovarian,> 100 µM
same,TGI,U251 CNS,> 100 µM
same,TGI,HL-60(TB) leukemia,> 100 µM
same,TGI,SR leukemia,> 100 µM
same,TGI,NCI/ADR-RES ovarian,> 100 µM
same,TGI,SK-MEL-28 melanoma,> 100 µM
same,TGI,EKVX NSCLC,> 100 µM
same,TGI,CCRF-CEM leukemia,> 100 µM
same,TGI,OVCAR-5 ovarian,> 100 µM
same,TGI,IGROV1 ovarian,> 100 µM
same,TGI,SK-MEL-2 melanoma,> 100 µM
same,TGI,BT-549 breast,> 100 µM
same,TGI,UO-31 renal,> 100 µM
same,TGI,DU-145 prostate,> 100 µM
same,TGI,T-47D breast,> 100 µM
same,TGI,HOP-92 NSCLC,> 100 µM
same,TGI,SW-620 colon,> 100 µM
same,TGI,KM12 colon,> 100 µM
same,TGI,UACC-257 melanoma,> 100 µM
same,TGI,HCT-116 colon,> 100 µM
Cc1cc(=O)[nH]c(-n2[nH]c3c(c2=O)CCCC3)n1,TGI,A498 renal,> 100 µM
same,TGI,SF-295 CNS,> 100 µM
same,TGI,MOLT-4 leukemia,> 100 µM
same,TGI,ACHN renal,> 100 µM
same,TGI,NCI-H226 lung,> 100 µM
same,TGI,SK-MEL-5 melanoma,> 100 µM
same,TGI,SNB-75 CNS,9.37 µM
same,TGI,RXF 393 renal,48.7 µM
same,TGI,M14 melanoma,> 100 µM
same,TGI,RPMI-8226 leukemia,> 100 µM
same,TGI,OVCAR-4 ovarian,> 100 µM
same,TGI,MALME-3M melanoma,> 100 µM
same,TGI,MDA-MB-435,> 100 µM
same,TGI,NCI-H460 lung,> 100 µM
same,TGI,A549 NSCLC,> 100 µM
same,TGI,SN12C renal,> 100 µM
same,TGI,MDA-N,> 100 µM
same,TGI,TK-10 renal,> 100 µM
same,TGI,CAKI-1 renal,> 100 µM
same,TGI,MCF7 breast,> 100 µM
same,TGI,HT29 colon,> 100 µM
same,TGI,PC-3 prostate,> 100 µM
same,TGI,HS 578T breast,> 100 µM
same,TGI,SK-OV-3 ovarian,> 100 µM
same,TGI,SF-268 CNS,> 100 µM
same,TGI,SF-539 CNS,> 100 µM
same,TGI,COLO 205 colon,> 100 µM
same,TGI,UACC-62 melanoma,> 100 µM
same,TGI,NCI-H23 lung,> 100 µM
same,TGI,NCI-H522 lung,> 100 µM
same,TGI,786-0 renal,> 100 µM
same,TGI,K-562 leukemia,> 100 µM
same,TGI,HCT-15 colon,> 100 µM
same,TGI,SNB-19 CNS,> 100 µM
same,TGI,MDA-MB-231 breast,> 100 µM
same,TGI,U251 CNS,> 100 µM
same,TGI,HL-60(TB) leukemia,> 100 µM
same,TGI,SR leukemia,> 100 µM
same,TGI,SK-MEL-28 melanoma,> 100 µM
same,TGI,EKVX NSCLC,> 100 µM
same,TGI,CCRF-CEM leukemia,> 100 µM
same,TGI,OVCAR-5 ovarian,> 100 µM
same,TGI,IGROV1 ovarian,> 100 µM
same,TGI,SK-MEL-2 melanoma,> 100 µM
same,TGI,BT-549 breast,> 100 µM
same,TGI,UO-31 renal,> 100 µM
same,TGI,DU-145 prostate,> 100 µM
same,TGI,T-47D breast,> 100 µM
same,TGI,HOP-92 NSCLC,> 100 µM
same,TGI,SW-620 colon,> 100 µM
same,TGI,KM12 colon,> 100 µM
same,TGI,UACC-257 melanoma,> 100 µM
same,TGI,HCT-116 colon,> 100 µM
